Data set [1] has as its system Jurkat cells. In words: Detection of oxidative stress using flow cytometry (menadione, TBHP). Type of data set: cell-based, human. The following applies: menadione 25-100 μM or TBHP 50-200 μM 60 min, 5 μM probe, 488 nm laser, 530/30 filter. The method, then:
Jurkat cells were diluted in RPMI with 10% FBS to a density of 10^6 cells/ml. Control cells were treated with vehicle control or DMSO, and sample cells were treated with different concentrations of menadione (25 μM, 50 μM, or 100 μM), or were treated with different concentrations of Tert-butyl hydroperoxide (TBHP) (50 μM, 100 μM, or 200 μM) for 60 min. Compound 1 was added to a final concentration of 5 μM for the last 30 minutes of drug incubation. The samples were acquired and analyzed on an Attune® Acoustic Focusing Cytometer. Compound 1 fluorescence was detected using the 488 nm laser and a 530/30 nm bandpass emission filter. A total of 20,000 events were collected using the standard 200 μl/minute collection rate. An increase in Compound 1 fluorescence intensity is observed in menadione and TBHP-treated cells compared to their controls (see, FIG. 6).
For orientation: A flow cytometer gives signals particle by particle.

Data set [2] relates to Jurkat cells. Briefly: Detection of TBHP-induced ROS by flow cytometry, with or without NAC. The following applies: 500 nM probe. Type of data set: cell-based, human. As to the method:
Jurkat cells were treated with phosphate buffered saline (FIG. 7, control), 200 μM tert-butyl-hydroperoxide (FIG. 7, TBHP), or 200 μM TBHP and 1 mM N-acetyl-L-cysteine (FIG. 7, TBHP+NAC), for one hour at 37° C., 5% CO2 prior to incubation with 500 nM Compound 1. Cell samples were analyzed using a Becton Dickinson LSRII flow cytometer equipped with a 488 nm laser line and a 525/50 bandpass filter for collection of fluorescence emission of Compound 1. TBHP is a membrane-permeant pro-oxidant used extensively in a model of oxidative stress in different systems. Reduction in the oxidative stress response induced by TBHP has been attributed to the ability of the antioxidant, NAC, to replenish intracellular glutathione levels. This reduces levels of reactive oxygen species.

Data set [3] relates to Human osteosarcoma (U2-OS) cells. Briefly: Resistance to formaldehyde fixation and detergent permeabilization. The following applies: 100 μM menadione 1 hr, 5 μM probe, 4% formaldehyde, 0.1% Triton X-100. Type of data set: cell-based. As to the method: Human osteosarcoma (U2-OS) cells were plated on a 96-well plate at a density of 7,500 cells/well and incubated overnight at 37° C. The cells were treated with or without 100 μM menadione for 1 hr at 37° C. The cells were then stained with 5 μM Compound 1 and Hoechst 33342 by adding the probes to complete media and incubating at 37° C. for 30 min. The cells were washed with PBS and imaged on a Thermo Fisher Cellomics ArrayScan® VTI, either live or 4% formaldehyde fixed or formaldehyde-fixed and permeabilized with 0.1% Triton X-100.

Data set [4] shares this test system. Briefly: Detection of TBHP- or menadione-induced ROS by fluorescence microscopy. It counts as cell-based. The conditions noted are these: 200 μM TBHP 2 hrs or 100 μM menadione 1 hr, 5 μM probe for last 30 min, washed 3× PBS. The method, then: Human osteosarcoma (U2-OS) cells were plated on MatTek 30 mm dishes at a density of 200,000 cells/dish and incubated at 37° C. The cells were then treated with or without 200 μM tert-butyl hydroperoxide (TBHP, 2 hrs at 37° C.) or 100 μM menadione (1 hr at 37° C.). The cells were stained with 5 μM Compound 1 for the last 30 min of the drug incubation. The cells were washed 3× with phosphate buffered saline (PBS) and imaged on a Zeiss Axiovert inverted microscope using a 40× objective.

Data set [5] relates to Jurkat cells (T-cell leukemia, human). In words: Detection of ROS with and without a post-staining wash step, flow cytometry. Type of data set: cell-based. As to the method:
Jurkat cells (T-cell leukemia, human) were treated with phosphate buffered saline (control; FIG. 8, panel A) or 200 μM tert-butyl-hydroperoxide (TBHP; FIG. 8, panel B) for one hour at 37° C., 5% CO2 prior to incubation with 500 nM Compound 1. Cell samples were directly analyzed on a Becton Dickinson LSRII flow cytometer equipped with a 488 nm laser line and a 525/50 bandpass filter for collection of fluorescence emission of Compound 1. Histogram overlays show cells analyzed immediately following 30 minutes incubation with Compound 1 (FIG. 8) compared to samples analyzed following three-3 mL wash steps (FIG. 8). […] The signal to noise ratio (or fold change in TBHP-treated cells as compared to control cells) in the no-wash samples was similar to the signal to noise ratio in the samples that were washed three times, 9.1 and 10.4, respectively, for the no-wash and the washed sample.

The test system is the same in data set [6]. In words: Detection of ROS in complete media vs. protein-containing buffer, flow cytometry. Type of data set: cell-based. The following applies: 500 nM probe. As to the method: Jurkat cells (T-cell leukemia, human) were resuspended in complete medium (RPMI 1640 medium, GIBCO (Life Technologies, Carlsbad, Calif.), supplemented with 10% Fetal Bovine Serum, FBS) or phosphate buffered saline supplemented with 1% bovine serum albumin (BSA). Cells in both complete medium (FIG. 9, panel A) and buffered saline+1% BSA (FIG. 9, panel B) were treated with diluents control, phosphate buffered saline alone (FIG. 9, control) or 400 μM tert-butyl-hydroperoxide (FIG. 9, TBHP) for 30 minutes at 37° C., 5% CO2 prior to staining with 500 nM Compound 1. Cell samples were analyzed on a BD LSRII flow cytometer equipped with a 488 nm laser line and a 525/50 bandpass filter for collection of fluorescence emission of Compound 1. The median fluorescent intensity (MFI) of Compound 1 fluorescence in control cells (FIG. 9, panel A) and the MFI of Compound 1 fluorescence in TBHP-treated cells (FIG. 9, panel B) stained in complete media (FIG. 9, panel A) were increased compared to samples stained in protein-containing buffer (FIG. 9, panel B). As a consequence, the signal to noise ratio (or fold change in TBHP-treated cells as compared to control cells) in the samples stained in complete media (FIG. 9, panel A) is greater (13.6) than the signal to noise ratio in the samples stained in protein-containing buffer (9.6).

In data set [7] the test system is Human aortic smooth muscle (HASM) cells. In words: Detection of angiotensin-II-induced oxidative stress by fluorescence microscopy. The following applies: 500 ng/ml angiotensin-II 4 hrs, 5 μM probe for last 30 min. Type of data set: cell-based. The method, then: Human aortic smooth muscle (HASM) cells were plated on MatTek 30 mm dishes at a density of 150,000 cells/dish and incubated at 37° C. The cells were then treated with or without 500 ng/ml angiotensin-II for 4 hrs. The cells were stained with 5 μM Compound 1 for last 30 min of the drug incubation. The cells were washed 3× with PBS and imaged on a Zeiss Axiovert inverted microscope using a 40× objective. An increase in the signal of Compound 1 as observed for all compounds tested, indicating an increase in oxidative stress in these cell models (see, FIG. 3).

Take `CCCCC1=C/C(=C/C2Sc3ccccc3N2C)c2ccccc2N1c1ccccc1` (stereo not shown) [Compound 1, (Z)-2-((2-butyl-1-phenylquinolin-4(1H)-ylidene)methyl)-3-methyl-2,3-dihydrobenzo[d]thiazole]: the “fluorescence intensity in menadione and TBHP-treated cells compared to controls” value in the data set with Jurkat cells [1] is given as “increase”. Moreover, the “Mean Fluorescence Intensity (MFI), TBHP-treated cells” value with Jurkat cells [2] (200 μM TBHP 1 hour) was 3944. Moreover, the “Mean Fluorescence Intensity (MFI), TBHP + NAC treated cells” value in the data set on Jurkat cells [2] (200 μM TBHP and 1 mM N-acetyl-L-cysteine 1 hour) is on record as 2768. Besides, in the data set on Jurkat cells [2] (phosphate buffered saline control), the “Mean Fluorescence Intensity (MFI), control cells” value was found to be 365. Moreover, the “signal retention after formaldehyde fixation and detergent permeabilization” value in data set [3] was “retained well”. In addition, the “signal of Compound 1 (fluorescence) in treated vs untreated cells” value in data set [4] and in data set [7] was “increase” each time. In data set [5] (500 nM probe 30 minutes, no wash vs three 3 mL wash steps), the “median fluorescence intensity (MFI), no-wash cells compared to washed cells” value is listed as “not significantly different”. Further, the “signal to noise ratio (fold change in TBHP-treated cells as compared to control cells), no-wash sample” value in data set [5] (200 μM TBHP 1 hour, 500 nM probe, no wash) was 9.1. The “signal to noise ratio (fold change in TBHP-treated cells as compared to control cells), washed sample” value in data set [5] (200 μM TBHP 1 hour, 500 nM probe, washed three times) stood at 10.4. For the same molecule, in data set [6] (400 μM TBHP 30 minutes, PBS + 1% BSA), the “signal to noise ratio (fold change in TBHP-treated cells as compared to control cells), protein-containing buffer” value is 9.6. Moreover, in data set [6] (400 μM TBHP 30 minutes, RPMI 1640 + 10% FBS), the “signal to noise ratio (fold change in TBHP-treated cells as compared to control cells), complete media” value came out at 13.6. Moreover, the “median fluorescent intensity (MFI) in complete media compared to protein-containing buffer” value in data set [6] (control and 400 μM TBHP-treated cells) is listed as “increased”.

Values taken from US9518981B2, “Modified nucleic acid binding cyanine dyes for the detection of reactive oxygen species” (LIFE TECHNOLOGIES CORPORATION, priority 2012, dated 2016).
